Experimental data: publication PMC10239507, “Development of allosteric and selective CDK2 inhibitors for contraception with negative cooperativity to cyclin binding” (Nature Communications, 2023)

Legend:
Experiment in all cases: biochemical
[1] = target: T1, 371 kinases (kinase named in each endpoint) (Homo sapiens, UniProt O14965); conditions: AURORA A
T1 construct: purchased Reaction Biology

[2] = target: T2, 371 kinases (kinase named in each endpoint) (Homo sapiens, UniProt O43187); conditions: IRAK2
T2 construct: purchased Reaction Biology

[3] = target: T3, 371 kinases (kinase named in each endpoint) (Homo sapiens, UniProt O60285); conditions: ARK5/NUAK1
T3 construct: purchased Reaction Biology

[4] = target: T4, 371 kinases (kinase named in each endpoint) (Homo sapiens, UniProt O75385); conditions: ULK1
T4 construct: purchased Reaction Biology

[5] = target: T5, 371 kinases (kinase named in each endpoint) (Homo sapiens, UniProt P04049); conditions: RAF1
T5 construct: purchased Reaction Biology

[6] = target: T6, 371 kinases (kinase named in each endpoint) (Homo sapiens, UniProt P07332); conditions: FES/FPS
T6 construct: purchased Reaction Biology

[7] = target: T7, 371 kinases (kinase named in each endpoint) (Homo sapiens, UniProt P10398); conditions: ARAF
T7 construct: purchased Reaction Biology

[8] = target: T8, 371 kinases (kinase named in each endpoint) (Homo sapiens, UniProt P27361); conditions: ERK1
T8 construct: purchased Reaction Biology

[9] = target: T9, 371 kinases (kinase named in each endpoint) (Homo sapiens, UniProt P29320); conditions: EPHA3
T9 construct: purchased Reaction Biology

[10] = target: T10, 371 kinases (kinase named in each endpoint) (Homo sapiens, UniProt P49137); conditions: MAPKAPK2
T10 construct: purchased Reaction Biology

[11] = target: T11, 371 kinases (kinase named in each endpoint) (Homo sapiens, UniProt P49840); conditions: GSK3a
T11 construct: purchased Reaction Biology

[12] = target: T12, 371 kinases (kinase named in each endpoint) (Homo sapiens, UniProt P51813); conditions: BMX/ETK
T12 construct: purchased Reaction Biology

[13] = target: T13, 371 kinases (kinase named in each endpoint) (Homo sapiens, UniProt P52333); conditions: JAK3
T13 construct: purchased Reaction Biology

[14] = target: T14, 371 kinases (kinase named in each endpoint) (Homo sapiens, UniProt P53779); conditions: JNK3
T14 construct: purchased Reaction Biology

[15] = target: T15, 371 kinases (kinase named in each endpoint) (Homo sapiens, UniProt Q00535)
T15 construct: purchased Reaction Biology

[16] = target: T16, 371 kinases (kinase named in each endpoint) (Homo sapiens, UniProt Q02750); conditions: MEK1
T16 construct: purchased Reaction Biology

[17] = target: T17, 371 kinases (kinase named in each endpoint) (Homo sapiens, UniProt Q13164); conditions: ERK5/MAPK7
T17 construct: purchased Reaction Biology

[18] = target: T18, 371 kinases (kinase named in each endpoint) (Homo sapiens, UniProt Q13188); conditions: MST2/STK3
T18 construct: purchased Reaction Biology

[19] = target: T19, 371 kinases (kinase named in each endpoint) (Homo sapiens, UniProt Q13976); conditions: PKG1A
T19 construct: purchased Reaction Biology

[20] = target: T20, 371 kinases (kinase named in each endpoint) (Homo sapiens, UniProt Q16539); conditions: P38A/MAPK14
T20 construct: purchased Reaction Biology

[21] = target: T21, 371 kinases (kinase named in each endpoint) (Homo sapiens, UniProt Q86Z02); conditions: HIPK1
T21 construct: purchased Reaction Biology

[22] = target: T22, 371 kinases (kinase named in each endpoint) (Homo sapiens, UniProt Q8IU85); conditions: CAMK1D
T22 construct: purchased Reaction Biology

[23] = target: T23, 371 kinases (kinase named in each endpoint) (Homo sapiens, UniProt Q8IWQ3); conditions: BRSK2
T23 construct: purchased Reaction Biology

[24] = target: T24, 371 kinases (kinase named in each endpoint) (Homo sapiens, UniProt Q8IYT8); conditions: ULK2
T24 construct: purchased Reaction Biology

[25] = target: T25, 371 kinases (kinase named in each endpoint) (Homo sapiens, UniProt Q8N4C8); conditions: MINK/MINK1
T25 construct: purchased Reaction Biology

[26] = target: T26, 371 kinases (kinase named in each endpoint) (Homo sapiens, UniProt Q8N568); conditions: DCAMKL2
T26 construct: purchased Reaction Biology

[27] = target: T27, 371 kinases (kinase named in each endpoint) (Homo sapiens, UniProt Q8TDX7); conditions: NEK7
T27 construct: purchased Reaction Biology

[28] = target: T28, 371 kinases (kinase named in each endpoint) (Homo sapiens, UniProt Q96KB5); conditions: PBK/TOPK
T28 construct: purchased Reaction Biology

[29] = target: T29, 371 kinases (kinase named in each endpoint) (Homo sapiens, UniProt Q96S53); conditions: TESK2
T29 construct: purchased Reaction Biology

[30] = target: T30, 371 kinases (kinase named in each endpoint) (Homo sapiens, UniProt Q99683); conditions: ASK1/MAP3K5
T30 construct: purchased Reaction Biology

[31] = target: T31, 371 kinases (kinase named in each endpoint) (Homo sapiens, UniProt Q9HCP0); conditions: CK1G1
T31 construct: purchased Reaction Biology

[32] = target: T32, 371 kinases (kinase named in each endpoint) (Homo sapiens, UniProt Q9P289); conditions: MST4
T32 construct: purchased Reaction Biology

[33] = target: T33, 371 kinases (kinase named in each endpoint) (Homo sapiens, UniProt Q9UBE8); conditions: NLK
T33 construct: purchased Reaction Biology

[34] = target: T34, 371 kinases (kinase named in each endpoint) (Homo sapiens, UniProt Q9UHD2); conditions: TBK1
T34 construct: purchased Reaction Biology

[35] = target: T35, 371 kinases (kinase named in each endpoint) (Homo sapiens, UniProt Q9UM73); conditions: ALK
T35 construct: purchased Reaction Biology

[36] = system: 371 kinases (kinase named in each endpoint); conditions: 10 µM

T15 sequence (Q00535 whole entry): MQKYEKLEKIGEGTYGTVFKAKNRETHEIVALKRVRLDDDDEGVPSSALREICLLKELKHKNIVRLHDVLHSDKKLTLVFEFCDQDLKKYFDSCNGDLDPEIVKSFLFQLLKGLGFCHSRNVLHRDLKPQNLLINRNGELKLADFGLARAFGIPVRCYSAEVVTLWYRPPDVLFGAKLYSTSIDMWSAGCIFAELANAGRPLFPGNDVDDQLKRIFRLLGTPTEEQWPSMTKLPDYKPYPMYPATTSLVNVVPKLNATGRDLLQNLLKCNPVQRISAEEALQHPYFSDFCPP
T5 sequence (P04049 whole entry): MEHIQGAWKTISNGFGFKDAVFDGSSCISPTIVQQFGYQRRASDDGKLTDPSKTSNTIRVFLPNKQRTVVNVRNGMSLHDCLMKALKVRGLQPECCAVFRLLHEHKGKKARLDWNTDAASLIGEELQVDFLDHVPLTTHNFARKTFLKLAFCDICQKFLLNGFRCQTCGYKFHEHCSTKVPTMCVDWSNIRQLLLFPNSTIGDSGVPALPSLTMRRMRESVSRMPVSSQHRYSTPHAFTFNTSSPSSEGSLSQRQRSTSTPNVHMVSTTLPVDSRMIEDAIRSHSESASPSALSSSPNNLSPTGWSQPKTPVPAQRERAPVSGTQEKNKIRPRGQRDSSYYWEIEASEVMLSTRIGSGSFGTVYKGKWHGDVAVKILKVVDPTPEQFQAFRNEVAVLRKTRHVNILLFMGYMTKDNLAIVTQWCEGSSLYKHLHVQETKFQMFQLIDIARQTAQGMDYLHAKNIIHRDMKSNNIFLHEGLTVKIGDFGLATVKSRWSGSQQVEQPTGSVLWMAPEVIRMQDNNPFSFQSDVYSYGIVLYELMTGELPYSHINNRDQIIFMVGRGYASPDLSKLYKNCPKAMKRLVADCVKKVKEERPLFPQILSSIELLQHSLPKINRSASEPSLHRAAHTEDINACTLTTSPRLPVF
T14 sequence (P53779 whole entry): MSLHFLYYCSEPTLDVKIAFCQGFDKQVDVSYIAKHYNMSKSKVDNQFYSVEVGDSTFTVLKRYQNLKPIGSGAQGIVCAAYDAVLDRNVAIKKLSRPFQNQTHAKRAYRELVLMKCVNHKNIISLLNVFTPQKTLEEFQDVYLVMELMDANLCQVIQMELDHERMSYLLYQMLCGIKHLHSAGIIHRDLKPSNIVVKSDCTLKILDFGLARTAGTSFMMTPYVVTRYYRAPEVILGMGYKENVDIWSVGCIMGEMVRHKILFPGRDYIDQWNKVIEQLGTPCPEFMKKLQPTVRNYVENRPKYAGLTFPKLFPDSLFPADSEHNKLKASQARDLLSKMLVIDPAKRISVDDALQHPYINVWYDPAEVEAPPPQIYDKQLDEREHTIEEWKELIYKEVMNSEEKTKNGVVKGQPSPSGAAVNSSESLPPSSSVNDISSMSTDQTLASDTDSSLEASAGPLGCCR
T18 sequence (Q13188 whole entry): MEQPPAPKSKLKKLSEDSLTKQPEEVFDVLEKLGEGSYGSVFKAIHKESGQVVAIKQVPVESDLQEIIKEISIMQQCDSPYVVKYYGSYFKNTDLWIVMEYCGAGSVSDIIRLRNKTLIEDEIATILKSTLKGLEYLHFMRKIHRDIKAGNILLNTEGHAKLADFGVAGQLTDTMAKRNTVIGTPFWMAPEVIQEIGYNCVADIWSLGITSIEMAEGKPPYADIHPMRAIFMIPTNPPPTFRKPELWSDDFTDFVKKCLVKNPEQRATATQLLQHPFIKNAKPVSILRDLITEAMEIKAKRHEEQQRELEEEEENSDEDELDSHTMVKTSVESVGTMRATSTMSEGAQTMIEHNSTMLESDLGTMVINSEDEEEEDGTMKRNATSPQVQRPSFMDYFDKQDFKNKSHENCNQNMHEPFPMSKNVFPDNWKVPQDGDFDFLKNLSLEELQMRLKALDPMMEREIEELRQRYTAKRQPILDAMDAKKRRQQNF
T10 sequence (P49137 whole entry): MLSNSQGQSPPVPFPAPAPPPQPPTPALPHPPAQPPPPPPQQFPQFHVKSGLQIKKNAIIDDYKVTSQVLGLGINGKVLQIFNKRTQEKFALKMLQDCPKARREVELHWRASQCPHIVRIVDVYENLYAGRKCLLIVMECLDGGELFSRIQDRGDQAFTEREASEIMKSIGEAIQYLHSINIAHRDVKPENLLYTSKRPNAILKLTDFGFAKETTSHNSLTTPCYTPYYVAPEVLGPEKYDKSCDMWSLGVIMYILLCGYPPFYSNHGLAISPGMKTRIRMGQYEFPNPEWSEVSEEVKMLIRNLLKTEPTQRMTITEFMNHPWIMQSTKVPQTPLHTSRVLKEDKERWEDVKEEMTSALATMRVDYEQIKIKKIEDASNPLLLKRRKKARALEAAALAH
T27 sequence (Q8TDX7 whole entry): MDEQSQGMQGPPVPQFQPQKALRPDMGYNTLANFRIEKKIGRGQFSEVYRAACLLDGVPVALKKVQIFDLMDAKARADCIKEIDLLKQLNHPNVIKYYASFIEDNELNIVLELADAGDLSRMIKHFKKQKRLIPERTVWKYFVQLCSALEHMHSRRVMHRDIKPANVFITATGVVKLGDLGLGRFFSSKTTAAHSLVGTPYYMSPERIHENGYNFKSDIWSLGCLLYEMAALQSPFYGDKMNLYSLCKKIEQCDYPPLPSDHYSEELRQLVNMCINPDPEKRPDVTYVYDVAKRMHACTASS
T30 sequence (Q99683 whole entry): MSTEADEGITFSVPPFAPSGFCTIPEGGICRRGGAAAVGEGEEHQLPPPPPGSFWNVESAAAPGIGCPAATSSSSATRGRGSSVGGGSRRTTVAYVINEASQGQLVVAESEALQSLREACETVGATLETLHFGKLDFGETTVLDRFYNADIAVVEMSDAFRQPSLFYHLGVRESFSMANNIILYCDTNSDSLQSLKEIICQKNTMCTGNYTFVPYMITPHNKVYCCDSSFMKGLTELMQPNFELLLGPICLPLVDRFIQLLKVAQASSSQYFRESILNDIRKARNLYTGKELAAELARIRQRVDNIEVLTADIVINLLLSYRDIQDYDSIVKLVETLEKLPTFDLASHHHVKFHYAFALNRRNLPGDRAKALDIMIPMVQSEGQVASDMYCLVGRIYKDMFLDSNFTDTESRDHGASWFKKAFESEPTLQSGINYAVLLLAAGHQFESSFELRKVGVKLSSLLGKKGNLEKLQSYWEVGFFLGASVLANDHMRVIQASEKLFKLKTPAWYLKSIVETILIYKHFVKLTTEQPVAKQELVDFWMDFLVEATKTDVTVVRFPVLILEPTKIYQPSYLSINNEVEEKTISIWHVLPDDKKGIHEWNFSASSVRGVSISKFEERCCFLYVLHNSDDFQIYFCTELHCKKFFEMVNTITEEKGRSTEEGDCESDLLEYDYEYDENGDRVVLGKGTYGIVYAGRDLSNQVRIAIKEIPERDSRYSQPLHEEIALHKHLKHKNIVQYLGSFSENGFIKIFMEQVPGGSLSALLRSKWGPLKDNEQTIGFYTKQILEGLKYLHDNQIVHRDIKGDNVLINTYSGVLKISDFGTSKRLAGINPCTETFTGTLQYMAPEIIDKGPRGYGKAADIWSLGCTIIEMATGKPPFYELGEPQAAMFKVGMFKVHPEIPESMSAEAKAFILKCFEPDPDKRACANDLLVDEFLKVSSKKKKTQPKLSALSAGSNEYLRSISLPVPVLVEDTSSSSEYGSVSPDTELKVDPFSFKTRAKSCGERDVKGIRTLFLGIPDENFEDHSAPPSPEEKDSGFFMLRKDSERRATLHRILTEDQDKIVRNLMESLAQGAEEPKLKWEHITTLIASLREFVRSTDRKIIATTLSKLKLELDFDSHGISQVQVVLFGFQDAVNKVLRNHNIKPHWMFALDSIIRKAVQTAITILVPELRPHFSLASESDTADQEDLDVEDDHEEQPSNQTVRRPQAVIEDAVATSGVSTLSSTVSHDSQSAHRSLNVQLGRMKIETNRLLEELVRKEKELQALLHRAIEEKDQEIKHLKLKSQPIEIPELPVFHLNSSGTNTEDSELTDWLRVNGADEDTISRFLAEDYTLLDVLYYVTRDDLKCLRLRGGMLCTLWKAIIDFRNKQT
T22 sequence (Q8IU85 whole entry): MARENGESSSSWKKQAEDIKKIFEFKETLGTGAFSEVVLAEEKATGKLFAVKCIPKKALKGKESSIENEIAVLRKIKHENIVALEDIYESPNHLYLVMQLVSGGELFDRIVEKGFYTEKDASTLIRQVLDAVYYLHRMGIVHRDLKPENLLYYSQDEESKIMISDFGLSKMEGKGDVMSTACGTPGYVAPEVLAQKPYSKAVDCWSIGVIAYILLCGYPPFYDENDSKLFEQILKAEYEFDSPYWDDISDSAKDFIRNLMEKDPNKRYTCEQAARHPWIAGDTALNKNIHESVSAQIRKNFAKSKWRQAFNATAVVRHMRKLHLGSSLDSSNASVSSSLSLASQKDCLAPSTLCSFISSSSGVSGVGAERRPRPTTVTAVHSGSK
T16 sequence (Q02750 whole entry): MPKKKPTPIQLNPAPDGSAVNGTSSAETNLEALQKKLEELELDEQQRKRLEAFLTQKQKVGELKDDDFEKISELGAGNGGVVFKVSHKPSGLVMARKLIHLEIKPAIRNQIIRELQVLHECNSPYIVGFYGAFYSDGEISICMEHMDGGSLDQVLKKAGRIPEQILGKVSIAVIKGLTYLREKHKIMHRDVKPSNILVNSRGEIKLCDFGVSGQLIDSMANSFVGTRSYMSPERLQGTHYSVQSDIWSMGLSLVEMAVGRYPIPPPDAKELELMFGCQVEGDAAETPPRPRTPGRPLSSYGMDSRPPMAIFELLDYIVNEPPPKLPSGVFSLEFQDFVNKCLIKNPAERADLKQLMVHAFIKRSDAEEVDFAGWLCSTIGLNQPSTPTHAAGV

O=C(O)c1cc(C(F)(F)F)ccc1NCCc1c[nH]c2cc(Br)ccc12 [Compound 5, 2-((2-(6-Bromo-1H-indol-3-yl)ethyl)amino)−5-(trifluoromethyl)benzoic Acid]
activity at 10 µM [1]: 75.2 ± 1.8%
activity at 10 µM [2]: 145 ± 0.9%
activity at 10 µM [3]: 75.5 ± 0.1%
activity at 10 µM [4]: 106.8 ± 0.3%
activity at 10 µM [5]: 97.8 ± 0.2%
activity at 10 µM [6]: 96.5 ± 1.8%
activity at 10 µM [7]: 91.1 ± 0.8%
activity at 10 µM [8]: 99.7 ± 0.9%
activity at 10 µM [9]: 99.7 ± 1.6%
activity at 10 µM [10]: 95.2 ± 1.8%
activity at 10 µM [11]: 67.6 ± 0.3%
activity at 10 µM [12]: 101.8 ± 0.4%
activity at 10 µM [13]: 94.7 ± 0.1%
activity at 10 µM [14]: 90.9 ± 0.3%
activity at 10 µM ([15]; CDK5/P25): 48.6 ± 1.3%
activity at 10 µM ([15]; CDK5/P35): 88.8 ± 0.3%
activity at 10 µM [16]: 104 ± 2.4%
activity at 10 µM [17]: 121 ± 3%
activity at 10 µM [18]: 134 ± 0.4%
activity at 10 µM [19]: 101 ± 1.8%
activity at 10 µM [20]: 124.8 ± 0.6%
activity at 10 µM [21]: 64.9 ± 0.2%
activity at 10 µM [22]: 69.8 ± 1.7%
activity at 10 µM [23]: 79.5 ± 0.8%
activity at 10 µM [24]: 102.4 ± 0.4%
activity at 10 µM [25]: 86.9 ± 0.4%
activity at 10 µM [26]: 101.3 ± 0.6%
activity at 10 µM [27]: 80.2 ± 0.8%
activity at 10 µM [28]: 156 ± 1.8%
activity at 10 µM [29]: 78.7 ± 0.8%
activity at 10 µM [30]: 110 ± 2.8%
activity at 10 µM [31]: 96.2 ± 0.3%
activity at 10 µM [32]: 56 ± 0.2%
activity at 10 µM [33]: 81.4 ± 4.1%
activity at 10 µM [34]: 117 ± 1.2%
activity at 10 µM [35]: 93.8 ± 0.7%
inhibition of any kinase [36]: ≤ 80%
share of the 371 kinases tested with >50% inhibition [36]: 4%
% Activity ([36]; LYN B): 93.2 ± 0.3%
% Activity ([36]; PKCB2): 100.1 ± 1.4%
% Activity ([36]; PKG1B): 78.0 ± 0.4%
